According to PubChem BioAssay AID298 (DTP/NCI, 2004):
Several values for one entry are separate records, joined by “and”; a condition that tells them apart may be missing. Equal entries are not always repeated. Results filed as inconclusive are left out.

System: MX-1 breast xenograft, intrarenal, nude mice, tumor weight
Experiment: NCI In Vivo Anticancer Drug Screen. Data for tumor model Human Mammary Carcinoma MX-1 Xenograft (intrarenal inoculation) in NU/NU BALB/C (nude) mice
Conditions: endpoint: mean tumor weight change, higher = larger tumour
Procedure, shortened: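 Efficacy in vivo: tumor measurement or survival of treated animals divided by that of vehicle-dosed controls.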

[1] = dose: 300.0 mg/kg/injection, schedule: Q04DX003 (sc), vehicle: saline
[2] = dose: 150.0 mg/kg/injection, schedule: Q04DX003 (ip), vehicle: Klucel (hydroxypropylcellulose) (HPC)
[3] = dose: 25.0 mg/kg/injection, schedule: Q04DX003 (ip), vehicle: water
[4] = dose: 50.0 mg/kg/injection, schedule: Q04DX003 (ip), vehicle: water
[5] = dose: 12.5 mg/kg/injection, schedule: Q04DX003 (ip), vehicle: saline with Tween-80
[6] = dose: 100.0 mg/kg/injection, schedule: Q04DX003 (ip), vehicle: saline with Tween-80

SMILES: CC(/C=C/C1OC(=O)C=CC1C)=C\C(C)C/C=C/C(C)=C/C(C)C(=O)C(C)C(O)C(C)C/C(C)=C/C(=O)O (configuration not stated)
- T/C (dose: 50.0 micrograms/kg/injection, schedule: Q04DX003 (ip), vehicle: alcohol): 104 % of control
- T/C (dose: 100.0 micrograms/kg/injection, schedule: Q04DX003 (ip), vehicle: alcohol): 87 % of control
- T/C (dose: 200.0 micrograms/kg/injection, schedule: Q04DX003 (ip), vehicle: alcohol): 81 % of control
- T/C (dose: 400.0 micrograms/kg/injection, schedule: Q04DX003 (ip), vehicle: alcohol): 111 % of control

SMILES: CC1(C)COCN1COCCOCN1COCC1(C)C
- T/C (dose: 200.0 mg/kg/injection, schedule: Q04DX003 (sc), vehicle: saline): 77 % of control
- T/C (dose: 400.0 mg/kg/injection, schedule: Q04DX003 (sc), vehicle: saline): 83 % of control

SMILES: COc1nc(C(Cl)(Cl)Cl)c(Cl)c(OC)c1Cl
- T/C (dose: 89.0 mg/kg/injection, schedule: Q04DX003 (oral), vehicle: Klucel (hydroxypropylcellulose) (HPC)): -100 % of control
- T/C (dose: 133.5 mg/kg/injection, schedule: Q04DX003 (oral), vehicle: Klucel (hydroxypropylcellulose) (HPC)): -100 % of control
- T/C (dose: 200.0 mg/kg/injection, schedule: Q04DX003 (oral), vehicle: Klucel (hydroxypropylcellulose) (HPC)): -100 % of control
- T/C (dose: 300.0 mg/kg/injection, schedule: Q04DX003 (oral), vehicle: Klucel (hydroxypropylcellulose) (HPC)): -100 % of control
- T/C (dose: 450.0 mg/kg/injection, schedule: Q04DX003 (oral), vehicle: Klucel (hydroxypropylcellulose) (HPC)): -100 % of control

SMILES: c1ccc2c(c1)[As]=c1ccccc1=[As]2 (configuration not stated)
- T/C (dose: 75.0 mg/kg/injection, schedule: Q04DX003 (sc), vehicle: saline): 108 % of control
- T/C (dose: 150.0 mg/kg/injection, schedule: Q04DX003 (sc), vehicle: saline): 87 % of control
- T/C [1]: 99 % of control

SMILES: COc1cc(O)c2c(O)c3c(c4c2c1[C@]1(C4)C(C)=CCCC1(C)C)[C@H](O)[C@@]1(O)CC(=O)C(C(N)=O)=C(O)[C@@]1(O)C3=O
- T/C (dose: 75.0 mg/kg/injection, schedule: Q04DX003 (ip), vehicle: saline with Tween-80): 106 % of control

SMILES: N#Cc1c(-c2ccccc2)c(-c2ccccc2)nn(CC(=O)O)c1=O
- T/C (dose: 100.0 mg/kg/injection, schedule: Q04DX003 (ip), vehicle: distilled water + Tween-80): 120 % of control
- T/C (dose: 200.0 mg/kg/injection, schedule: Q04DX003 (ip), vehicle: distilled water + Tween-80): 85 % of control

SMILES: CCOC(=O)Nc1cc2c(c(N)n1)N=C(c1ccc3ccccc3c1)CN2
- T/C (dose: 3.75 mg/kg/injection, schedule: Q04DX003 (ip), vehicle: saline with Tween-80): 73 % of control
- T/C (dose: 7.5 mg/kg/injection, schedule: Q04DX003 (ip), vehicle: saline with Tween-80): 81 % of control
- T/C (dose: 15.0 mg/kg/injection, schedule: Q04DX003 (ip), vehicle: saline with Tween-80): 44 % of control
- T/C (dose: 30.0 mg/kg/injection, schedule: Q04DX003 (ip), vehicle: saline with Tween-80): 34 % of control

SMILES: [Cl][Sn]([c]1ccccc1)[c]1ccccc1
- T/C [1]: 104 % of control
- T/C (dose: 600.0 mg/kg/injection, schedule: Q04DX003 (sc), vehicle: saline): 86 % of control
- T/C (dose: 1200.0 mg/kg/injection, schedule: Q04DX003 (sc), vehicle: saline): 55 % of control
- T/C (dose: 2400.0 mg/kg/injection, schedule: Q04DX003 (sc), vehicle: saline): 66 % of control

SMILES: Cc1ccc2c(c1)C1(C)OC(C=CC1=O)O2 (configuration not stated)
- T/C [2]: 94 % of control

SMILES: Nc1nc2ncn(O)c2c(=O)[nH]1
- T/C [3]: 25 % of control and 41 % of control
- T/C [4]: 13 % of control

SMILES: O=C1C2C3C=CC(C2C(=O)N1CO)C1C2C(=O)N(CO)C(=O)C2C31 (configuration not stated)
- T/C (dose: 37.5 mg/kg/injection, schedule: Q04DX003 (ip), vehicle: water): 110 % of control
- T/C (dose: 75.0 mg/kg/injection, schedule: Q04DX003 (ip), vehicle: water): 71 % of control

SMILES: Cc1cc(O)c2c(c1O)C(=O)C13C(=C2O)C(=O)C2C(O)C1C1C(O)C3C(=O)C3=C(O)c4c(O)cc(C)c(O)c4C(=O)C321 (configuration not stated)
- T/C [5]: 107 % of control
- T/C (dose: 25.0 mg/kg/injection, schedule: Q04DX003 (ip), vehicle: saline with Tween-80): 76 % of control

SMILES: O=C(Nc1ccccc1)c1c(O)[nH]c(=O)[nH]c1=O
- T/C [6]: 102 % of control
- T/C (dose: 200.0 mg/kg/injection, schedule: Q04DX003 (ip), vehicle: saline with Tween-80): 71 % of control
- T/C (dose: 400.0 mg/kg/injection, schedule: Q04DX003 (ip), vehicle: saline with Tween-80): 57 % of control

SMILES: O=C[C@@H](CO)O[C@H](C=O)c1c[nH]c(=O)[nH]c1=O
- T/C (dose: 25.0 mg/kg/injection, schedule: Q04DX003 (ip), vehicle: saline): 71 % of control
- T/C (dose: 37.5 mg/kg/injection, schedule: Q04DX003 (ip), vehicle: saline): 54 % of control
- T/C (dose: 100.0 mg/kg/injection, schedule: Q04DX003 (ip), vehicle: saline): 5 % of control and 9 % of control and 28 % of control
- T/C (dose: 125.0 mg/kg/injection, schedule: Q04DX003 (ip), vehicle: saline): 4 % of control and 7 % of control

SMILES: COC(=O)C1(F)C(=O)NC(=O)NC1OC (configuration not stated)
- T/C [2]: 85 % of control
- T/C (dose: 300.0 mg/kg/injection, schedule: Q04DX003 (ip), vehicle: Klucel (hydroxypropylcellulose) (HPC)): 93 % of control
- T/C (dose: 600.0 mg/kg/injection, schedule: Q04DX003 (ip), vehicle: Klucel (hydroxypropylcellulose) (HPC)): 43 % of control

SMILES: Cc1ccccc1N=C(c1ccccc1)C1C(=O)c2ccccc2C1=O
- T/C (dose: 150.0 mg/kg/injection, schedule: Q04DX003 (ip), vehicle: DMSO): 117 % of control
- T/C (dose: 300.0 mg/kg/injection, schedule: Q04DX003 (ip), vehicle: DMSO): 102 % of control
- T/C (dose: 600.0 mg/kg/injection, schedule: Q04DX003 (ip), vehicle: DMSO): 103 % of control
- T/C (dose: 1200.0 mg/kg/injection, schedule: Q04DX003 (ip), vehicle: DMSO): 65 % of control

SMILES: CC(C)(C[NH-])C[NH-].[Cl][Pt+2][Cl]
- T/C (dose: 1.5 mg/kg/injection, schedule: Q04DX003 (ip), vehicle: water): 56 % of control
- T/C (dose: 6.0 mg/kg/injection, schedule: Q04DX003 (ip), vehicle: water): 2 % of control and 3 % of control

SMILES: N#CC(C#N)=NNc1ccc2cn[nH]c2c1
- T/C (dose: 12.5 mg/kg/injection, schedule: Q04DX003 (ip), vehicle: Klucel (hydroxypropylcellulose) (HPC)): 94 % of control
- T/C (dose: 50.0 mg/kg/injection, schedule: Q04DX003 (ip), vehicle: Klucel (hydroxypropylcellulose) (HPC)): 174 % of control
- T/C (dose: 100.0 mg/kg/injection, schedule: Q04DX003 (ip), vehicle: Klucel (hydroxypropylcellulose) (HPC)): 106 % of control

SMILES: Nc1c(/C=C/c2cc3cc(C4=NCCN4)ccc3o2)[nH]c2cc(C3=NCCN3)ccc12
- T/C (dose: 37.5 mg/kg/injection, schedule: Q04DX003 (ip), vehicle: Klucel (hydroxypropylcellulose) (HPC)): 80 % of control
- T/C (dose: 75.0 mg/kg/injection, schedule: Q04DX003 (ip), vehicle: Klucel (hydroxypropylcellulose) (HPC)): 103 % of control
- T/C [2]: 40 % of control

SMILES: CNC(=S)SC1=NS(=O)(=O)c2ccccc2N1
- T/C (dose: 200.0 mg/kg/injection, schedule: Q04DX003 (ip), vehicle: Klucel (hydroxypropylcellulose) (HPC)): 179 % of control
- T/C (dose: 400.0 mg/kg/injection, schedule: Q04DX003 (ip), vehicle: Klucel (hydroxypropylcellulose) (HPC)): 165 % of control

SMILES: CN=C(N)c1ccc(N=C(N)c2ccc(C(N)=Nc3ccc(C(N)=NC)cc3)cc2)cc1
- T/C (dose: 15.0 mg/kg/injection, schedule: Q04DX003 (ip), vehicle: saline): 96 % of control
- T/C (dose: 30.0 mg/kg/injection, schedule: Q04DX003 (ip), vehicle: saline): 118 % of control

SMILES: CNCCN=c1ccc2c3c1c(O)c1c(O)ccc(=O)c1c3[nH]n2CCNCCO
- T/C (dose: 1.56 mg/kg/injection, schedule: Q04DX003 (ip), vehicle: water): 7 % of control and 17 % of control and 26 % of control
- T/C (dose: 3.12 mg/kg/injection, schedule: Q04DX003 (ip), vehicle: water): 1 % of control and 5 % of control and 8 % of control

SMILES: CC1(O)C=CC(=O)C=C1
- T/C [3]: 96 % of control
- T/C [4]: 64 % of control

SMILES: O=NNc1ccccn1
- T/C (dose: 4.0 mg/kg/injection, schedule: Q01DX010 (sc), vehicle: saline): 124 % of control
- T/C (dose: 16.0 mg/kg/injection, schedule: Q01DX010 (sc), vehicle: saline): 80 % of control
- T/C (dose: 32.0 mg/kg/injection, schedule: Q01DX010 (sc), vehicle: saline): 14 % of control

SMILES: OC1OC2COC(c3ccccc3)OC2C(O)C1O (configuration not stated)
- T/C (dose: 300.0 mg/kg/injection, schedule: Q04DX003 (sc), vehicle: water): 57 % of control
- T/C (dose: 600.0 mg/kg/injection, schedule: Q04DX003 (sc), vehicle: water): 91 % of control
- T/C (dose: 1200.0 mg/kg/injection, schedule: Q04DX003 (sc), vehicle: water): 91 % of control
- T/C (dose: 2400.0 mg/kg/injection, schedule: Q04DX003 (sc), vehicle: water): 105 % of control

SMILES: CC(C)c1cc(C(=O)O)c(O)c(C(C)C)c1.CC(C)c1cc(C(=O)O)c(O)c(C(C)C)c1.[Cu]
- T/C [5]: 74 % of control
- T/C (dose: 50.0 mg/kg/injection, schedule: Q04DX003 (ip), vehicle: saline with Tween-80): 116 % of control
- T/C [6]: 90 % of control
